pIC50: −log10 of the molar value. Like-named read-outs stand apart in the source and are kept apart here.
Key:
HCT116 cells = experiment: MTT cytotoxicity screening, human colon cancer cell line HCT116; assay type: cell-based; conditions: Homo sapiens
From the text: Human colon cancer cell line HCT116 can be used for the preliminary cytotoxicity screening of the disclosed compounds as disclosed by Mosmann, T., “Rapid colorimetric assay for cellular growth and survival: application to proliferation and cytotoxicity assays.” J. Immunol. Methods, (1983) 65(1-2): p. 55-63 referred to herein further as the “MTT test” which is incorporated herein by reference in its entirety.
The disclosure of Mosmann recites the following. “MTT 93-(4,5-dimethylthirazol-2-yl)-2,5-diphenyl tetrazolium bromide; Sigman catalog no. M2128) was dissolved in PBS at 5 mg/ml and filtered to sterilize and remove a small amount of insoluble residue present in some batches of MTT. At the times indicated below, stock MTT solution (10 ml per 100 ml) was added to all wells of an assay, and plates were incubated at 37° C. for 4 h. Acid-siopropanol (100 ml of 0.04 N HCl in isopropanol) was added to all wells and mixed thoroughly to dissolve the dark blue crystals. After a few minutes at room temperature to ensure that all crystals were dissolved, the plates were read o a Dynatech MR580Microelisa reader, using a test wavelength of 570 nm, a reference wavelength of 630 nm, and a calibration setting of 1.99 (or 1.0 if the samples were strongly colored). Plates were normally read within 1 h of adding the isopropanol.
“Our final procedure was to add 0.01 ml MTT (5 mg/ml in phosphate-buffered saline) to 0.1 ml cells in growth medium. After 4 h at 37° C. for MTT cleavage, the formazan product was solublilized by the addition of 0.1 ml 0.04 N HCl in isopropanol. Optical density was measured on a Dynatech MR 580 plate reader, using a reference wavelength of 630 nm and a test wavelength of 570 nm.” 3-(4,5-Dimethylthiazol-2-yl)-2,5-diphenyltetrazolium bromide, a tetrazole, can pass through cellular membrane to enter into cells. This tetrazole may be reduced to the purple formazan in the mitochondria of living cells, which can diffuse out to form crystals. This crystal can be dissolved in the dimethyl sulfoxide to form a colored solution. The absorbance of this colored solution can be quantified by measuring at certain wavelength (490 nm) using a spectrophotometer. The quantity of the formazan crystal is proportional to the number of living cells.
As used herein, cells were cultured in McCoy's 5A medium supplemented with 10% heat-inactivated Fetal Bovine Serum (FBS) and 5% Penicillin/Streptomycin solution. McCoy's 5A, 1× (Iwakata & Grace modified) medium with L-Glutamine, DPBS, 1× w/o Ca and Mg, Penicillin/Streptomycin solution, Trypsin EDTA, 1× and PBS, 1× w/o Ca and Mg were purchased from Mediatech, Inc. (USA). FBS was purchased from Hyclone (USA).
The cytotoxicity of the compounds was estimated using the MTT assay. A 96-well plate was seeded with 100 μl medium containing HCT116 cells in suspension at a density of 2.5×10^4 cells/ml. After 24 hours of incubation, the cells were treated with the compounds, which were dissolved in DMSO (dimethyl sulfoxide) as stock solutions and diluted to final concentrations of 100 μM, 50 μM, 25 μM, 12.5 μM, 6.25 μM & 1 μM (for compounds tested in the micromolar concentrations) and 10 μM, 1 μM, 500 nM, 250 nM, 125 nM & 62.5 nM (for compounds tested in the nanomolar concentration range) using medium containing 0.1% DMSO. The final concentration of DMSO in the culture medium was maintained at 0.1%-0.001% (v/v). After 48 hrs incubation in the presence of test compounds, the spent medium was removed and the wells were washed twice with 100 μL of PBS solution. 100 μL of fresh medium and 10 μL of MTT (5 mg/ml in PBS) was added to the wells and incubated at 37° C. in dark for 4 hrs. The formazan product was dissolved by adding 100 μL of 100% DMSO after removing the medium from each well and was stabilized by adding 12.5 μL of Sorensen's glycine buffer to each well. […]

[1] = HCT-116, 48 hrs incubation, absorbance 490 nm, primary screening, read-out: IC50

SMILES | pIC50 (HCT116 cells; [1]) | melting point | pIC50 (HCT116 cells; HCT-116, further evaluated after secondary screening (Table VIII), read-out: IC50 value)
COc1cc(OC)c(C2=CCN(C)CC2)c(O)c1C(=O)/C=C/c1ccc(Cl)cc1 [Compound A12, (E)-3-(4-chlorophenyl)-1-(2-hydroxy-4,6-dimethoxy-3-(1-methyl-1,2,3,6-tetrahydropyridine-4-yl)phenyl)-2-propylene-1-one] | 5.08 | 169 to 170 °C | –
COc1cc(OC)c(C2=CCNCC2)c(O)c1C(=O)/C=C/c1ccco1 [Compound E2, (E)-3-(furan-2-yl)-1-(2-hydroxy-4,6-dimethoxy-3-(1,2,3,6-tetrahydropyridin-4-yl)phenyl)-2-propylene-1-one] | 4.96 | 119 to 120 °C | –
COc1cc(OC)c(C2=CCN(C)CC2)c(O)c1C(=O)/C=C/c1cccc(C)c1 [Compound A5, (E)-1-(2-hydroxy-4,6-dimethoxy-3-(1-methyl-1,2,3,6-tetrahydropyridine-4-yl)phenyl)-3-meta-methylphenyl-2-propylene-1-one] | 5.05 | 165 to 166 °C | –
COc1cccc(/C=C/C(=O)c2c(OC)cc(OC)c(CN3CCOCC3)c2O)c1 [Compound D6, (E)-3-(3-methoxyphenyl)-1-(2-hydroxy-4,6-dimethoxy-3-(morpholinemethyl)-phenyl)-2-propylene-1-one] | 5.66 | 169 to 170 °C | –
COc1cc(OC)c(C2=CCNCC2)c(O)c1C(=O)/C=C/c1ccccc1[N+](=O)[O-] [Compound B3, (E)-1-(2-hydroxy-4,6-dimethoxy-3-(1,2,3,6-tetrahydropyridine-4-yl)phenyl)-3-(2-nitrophenyl)-2-propylene-1-one] | 5.25 | 128 to 130 °C | –
COc1cc(OC)c(C2=CCNCC2)c(O)c1C(=O)/C=C/c1cccc([N+](=O)[O-])c1 [Compound B8, (E)-1-(2-hydroxy-4,6-dimethoxy-3-(1,2,3,6-tetrahydropyridine-4-yl)phenyl)-3-(3-nitrophenyl)-2-propylene-1-one] | 5.39 | 199 to 200 °C | –
COc1cc(OC)c(C2=CCNCC2)c(O)c1C(=O)/C=C/c1ccc(Br)cc1 [Compound B13, (E)-3-(4-bromophenyl)-1-(2-hydroxy-4,6-dimethoxy-3-(1,2,3,6-tetrahydropyridine-4-yl)phenyl)-2-propylene-1-one] | 4.74 | 120 to 121 °C | –
COc1cc(OC)c2c(=O)cc(-c3ccc(N(C)C)cc3)oc2c1C1=CCN(C)CC1 [Compound F5, 5,7-dimethoxy-8-(1-methyl-1,2,3,6-tetrahydropyridin-4-yl)-2-(4-(dimethylamino)-phenyl)-4H-chromen-4-one] | 5.11 | 148 to 150 °C | –
COc1cc(OC)c(C(=O)/C=C/c2ccc(C)cc2)c(O)c1CN1CCOCC1 [Compound D1, (E)-1-(2-hydroxy-4,6-dimethoxy-3-(morpholin-4-ylmethyl)phenyl)-3-(4-methylphenyl)-2-propylene-1-one] | 4.83 | 126 to 127 °C | –
COc1cccc(/C=C/C(=O)c2c(OC)cc(OC)c(C3=CCN(C)CC3)c2O)c1 [Compound A6, (E)-1-(2-hydroxy-4,6-dimethoxy-3-(1-methyl-1,2,3,6-tetrahydropyridine-4-yl)phenyl)-3-(3-methoxyphenyl)-2-propylene-1-one] | 5.17 | 140 to 141 °C | –
Cc1ccc(-c2cc(=O)c3c(O)cc(O)c(C4=CCN(C)CC4)c3o2)cc1 [Compound G3, 5,7-hydroxy-8-(1-methyl-1,2,3,6-tetrahydropyridin-4-yl)-2-(4-methylphenyl)-4H-chromen-4-one] | 5.47 | 160 to 161 °C | –
COc1cc(OC)c(C2=CCN(C)CC2)c(O)c1C(=O)/C=C/c1ccco1 [Compound E1, (E)-3-(furan-2-yl)-1-(2-hydroxy-4,6-dimethoxy-3-(1-methyl-1,2,3,6-tetrahydro-pyridine-4-yl)phenyl)-2-propylene-1-one] | 4.99 | 145 to 146 °C | –
COc1cccc(/C=C/C(=O)c2c(OC)cc(OC)c(C3=CCNCC3)c2O)c1 [Compound B6, (E)-1-(2-hydroxy-4,6-dimethoxy-3-(1,2,3,6-tetrahydropyridine-4-yl)phenyl)-3-(3-methoxyphenyl)-2-propylene-1-one] | 5.51 | 99 to 100 °C | –
COc1cc(OC)c(C2=CCNCC2)c(O)c1C(=O)/C=C/c1ccc(C#N)cc1 [Compound B15, (E)-3-(4-cyanophenyl)-1-(2-hydroxy-4,6-dimethoxy-3-(1,2,3,6-tetrahydropyridine-4-yl)phenyl)-2-propylene-1-one] | 5.14 | 135 to 136 °C | –
COc1ccc(/C=C/C(=O)c2c(OC)cc(OC)c(CN3CCCCC3)c2O)cc1 [Compound C2, (E)-1-(2-hydroxy-4,6-dimethoxy-3-(piperidin-1-ylmethyl)phenyl)-3-(4-methoxyphenyl)-2-propylene-1-one] | 5.26 | 129 to 130 °C | –
COc1cc(OC)c(C2=CCN(C)CC2)c(O)c1C(=O)/C=C/c1ccc(O)cc1 [Compound A11, (E)-1-(2-hydroxy-4,6-dimethoxy-3-(1-methyl-1,2,3,6-tetrahydropyridine-4-yl)phenyl)-3-(4-hydroxyphenyl)-2-propylene-1-one] | 4.05 | 98 to 100 °C | –
COc1cccc(/C=C/C(=O)c2c(OC)cc(OC)c(C3=CCNCC3)c2O)c1OC [Compound B4, (E)-3-(2,3-dimethoxyphenyl)-1-(2-hydroxy-4,6-dimethoxy-3-(1,2,3,6-tetrahydropyridine-4-yl)phenyl)-2-propylene-1-one] | 5.35 | 109 to 110 °C | –
COc1cc(OC)c(C2=CCNCC2)c(O)c1C(=O)/C=C/c1cccc(Cl)c1 [Compound B7, (E)-3-(3-chlorophenyl)-1-(2-hydroxy-4,6-dimethoxy-3-(1,2,3,6-tetrahydropyridine-4-yl)phenyl)-2-propylene-1-one] | 5.00 | 102 to 103 °C | –
COc1cccc(/C=C/C(=O)c2c(OC)cc(OC)c(C3=CCN(C)CC3)c2O)c1OC [Compound A4, (E)-3-(2,3-dimethoxyphenyl)-1-(2-hydroxy-4,6-dimethoxy-3-(1-methyl-1,2,3,6-tetrahydropyridine-4-yl)phenyl)-2-propylene-1-one] | 5.28 | 171 to 172 °C | < 6.00
COc1cc(OC)c(C(=O)/C=C/c2ccco2)c(O)c1CN1CCCCC1 [Compound E31, (E)-3-(furan-2-yl)-1-(2-hydroxy-4,6-dimethoxy-3-(piperidine-1-ylmethyl)phenyl)-2-propylene-1-one] | 5.07 | 95 to 96 °C | –
COc1ccc(/C=C/C(=O)c2c(OC)cc(OC)c(C3=CCNCC3)c2O)c(OC)c1OC [Compound B16, (E)-1-(2-hydroxy-4,6-dimethoxy-3-(1,2,3,6-tetrahydropyridine-4-yl)phenyl)-3-(2,3,4-trimethoxyphenyl)-2-propylene-1-one] | 5.26 | 98 to 100 °C | –
COc1ccc(/C=C/C(=O)c2c(OC)cc(OC)c(C3=CCN(C)CC3)c2O)cc1 [Compound A10, (E)-1-(2-hydroxy-4,6-dimethoxy-3-(1-methyl-1,2,3,6-tetrahydropyridine-4-yl)phenyl)-3-(4-methoxyphenyl)-2-propylene-1-one] | 4.93 | 177 to 178 °C | –

— patent US20120121692A1, “COMPOUNDS AND COMPOSITIONS COMPRISING CDK INHIBITORS AND METHODS FOR TREATING CANCER” (SHANDONG UNIVERSITY, priority 2009, published 2012)
